# According to ChEMBL document CHEMBL6182870, “Synthesis and biological activity of 1H-pyrrolo[3,2-g]isoquinolines as Haspin kinase inhibitors” (Bioorg Med Chem, 2025):
# Key:
# SH-SY5Y = assay: Antiproliferative activity against human SH-SY5Y cells assessed as inhibition of cell viability incubated for 48 hrs by MTS assay; type: functional, cell-based
# U2OS = assay: Antiproliferative activity against human U2OS cells assessed as inhibition of cell viability incubated for 48 hrs by MTS assay; type: functional, cell-based
# [1] = biological target: T1, Serine/threonine-protein kinase haspin (Homo sapiens) (UniProt Q8TF76); assay: Inhibition of recombinant human haspin kinase domain (470 to 798 residues) extracted from bacteria using histone H3 (1 to 21) peptide as substrate assessed as residual activity at 10 uM incubated for 30 mins in presence of ATP by ADP-Glo kinase assay relative to control
# T1 sequence (whole entry): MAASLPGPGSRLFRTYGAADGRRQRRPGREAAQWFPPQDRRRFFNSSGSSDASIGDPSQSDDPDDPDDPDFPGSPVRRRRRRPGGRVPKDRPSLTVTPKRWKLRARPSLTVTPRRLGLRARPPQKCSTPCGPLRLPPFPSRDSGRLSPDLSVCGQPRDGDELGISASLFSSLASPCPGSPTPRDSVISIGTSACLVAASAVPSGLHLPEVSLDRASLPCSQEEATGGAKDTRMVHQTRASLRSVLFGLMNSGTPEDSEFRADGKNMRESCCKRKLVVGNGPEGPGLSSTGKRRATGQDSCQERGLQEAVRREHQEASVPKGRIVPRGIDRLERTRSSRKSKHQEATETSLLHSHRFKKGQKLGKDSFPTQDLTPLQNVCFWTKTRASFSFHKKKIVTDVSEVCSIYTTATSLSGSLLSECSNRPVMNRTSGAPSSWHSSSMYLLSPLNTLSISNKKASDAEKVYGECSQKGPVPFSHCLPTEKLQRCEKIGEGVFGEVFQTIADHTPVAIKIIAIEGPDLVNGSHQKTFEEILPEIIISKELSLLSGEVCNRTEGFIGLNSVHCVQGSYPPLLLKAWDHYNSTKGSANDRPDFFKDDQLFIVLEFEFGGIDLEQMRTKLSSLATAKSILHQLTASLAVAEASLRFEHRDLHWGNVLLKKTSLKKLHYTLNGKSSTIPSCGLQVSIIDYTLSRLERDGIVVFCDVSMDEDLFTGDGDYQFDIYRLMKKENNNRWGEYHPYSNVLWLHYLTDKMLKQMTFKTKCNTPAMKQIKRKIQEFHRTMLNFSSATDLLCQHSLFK
# [2] = biological target: T1, Serine/threonine-protein kinase haspin (Homo sapiens); assay: Inhibition of recombinant human haspin kinase domain (470 to 798 residues) extracted from bacteria using histone H3 (1 to 21) peptide as substrate assessed as residual activity at 1 uM incubated for 30 mins in presence of ATP by ADP-Glo kinase assay relative to control
# [3] = biological target: T2, Serine/threonine-protein kinase haspin (Homo sapiens, UniProt Q8TF76); assay: Inhibition of recombinant human haspin kinase domain (470 to 798 residues) extracted from bacteria using histone H3 (1 to 21) peptide as substrate incubated for 30 mins in presence of ATP by ADP-Glo kinase assay
# T2 sequence (Q8TF76 whole entry): T1 sequence (whole entry)
# [4] = biological target: Dual specificity tyrosine-phosphorylation-regulated kinase 1A (Rattus norvegicus) (UniProt Q63470); assay: Inhibition of recombinant rat DYRK1A kinase domain (1 to 499 residues) extracted from bacteria using KKISGRLSPIMTEQ as substrate assessed as enzyme residual activity at 10 uM incubated for 30 mins in presence of ATP by ADP-Glo kinase assay relative to control
# [5] = biological target: Dual specificity protein kinase CLK1 (Mus musculus) (UniProt P22518); assay: Inhibition of recombinant mouse CLK1 extracted from bacteria using GRSRSRSRSRSR as substrate assessed as enzyme residual activity at 10 uM incubated for 30 mins in presence of ATP by ADP-Glo kinase assay relative to control
# Dual specificity protein kinase CLK1 (Mus musculus), sequence (P22518 whole entry, looked up): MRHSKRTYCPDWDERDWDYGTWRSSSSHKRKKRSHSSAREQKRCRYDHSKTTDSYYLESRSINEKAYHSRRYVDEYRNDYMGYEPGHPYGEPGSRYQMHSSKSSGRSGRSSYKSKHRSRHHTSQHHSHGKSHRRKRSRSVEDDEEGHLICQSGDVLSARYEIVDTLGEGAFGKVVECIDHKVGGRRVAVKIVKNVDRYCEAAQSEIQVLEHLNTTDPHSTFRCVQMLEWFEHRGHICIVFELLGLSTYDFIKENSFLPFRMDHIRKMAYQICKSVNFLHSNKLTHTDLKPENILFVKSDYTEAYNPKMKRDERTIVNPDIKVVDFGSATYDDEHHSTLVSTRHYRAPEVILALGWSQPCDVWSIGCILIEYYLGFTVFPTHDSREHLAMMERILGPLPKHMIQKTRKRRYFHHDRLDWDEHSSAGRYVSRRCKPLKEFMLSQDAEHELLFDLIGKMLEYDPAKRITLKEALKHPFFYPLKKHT
# [6] = biological target: Dual specificity protein kinase CLK1 (Mus musculus) (UniProt P22518); assay: Inhibition of recombinant mouse CLK1 extracted from bacteria using GRSRSRSRSRSR as substrate assessed as enzyme residual activity at 1 uM incubated for 30 mins in presence of ATP by ADP-Glo kinase assay relative to control
# [7] = biological target: Dual specificity protein kinase CLK1 (Mus musculus, UniProt P22518); assay: Inhibition of recombinant mouse CLK1 extracted from bacteria using GRSRSRSRSRSR as substrate incubated for 30 mins in presence of ATP by ADP-Glo kinase assay
# Dual specificity protein kinase CLK1, sequence (P22518 whole entry, the tested form may be a part): as the sequence (P22518 whole entry, looked up) above
# [8] = biological target: Dual specificity tyrosine-phosphorylation-regulated kinase 1A (Rattus norvegicus) (UniProt Q63470); assay: Inhibition of recombinant rat DYRK1A kinase domain (1 to 499 residues) extracted from bacteria using KKISGRLSPIMTEQ as substrate assessed as enzyme residual activity at 1 uM incubated for 30 mins in presence of ATP by ADP-Glo kinase assay relative to control
# [9] = biological target: Dual specificity tyrosine-phosphorylation-regulated kinase 1A (Rattus norvegicus, UniProt Q63470); assay: Inhibition of recombinant rat DYRK1A kinase domain (1 to 499 residues) extracted from bacteria using KKISGRLSPIMTEQ as substrate incubated for 30 mins in presence of ATP by ADP-Glo kinase assay
# [10] = Inhibition of recombinant human CDK9/Cyclin T extracted from baculovirus infected Sf9 cells using YSPTSPSYSPTSPSYSPTSPSKKKK as substrate assessed as enzyme residual activity at 10 uM incubated for 30 mins in presence of ATP by ADP-Glo kinase assay relative to control
# [11] = Inhibition of recombinant human CDK9/Cyclin T extracted from baculovirus infected Sf9 cells using YSPTSPSYSPTSPSYSPTSPSKKKK as substrate assessed as enzyme residual activity at 1 uM incubated for 30 mins in presence of ATP by ADP-Glo kinase assay relative to control
# [12] = biological target: Glycogen synthase kinase-3 beta (Homo sapiens) (UniProt P49841); assay: Inhibition of recombinant human GSK3beta extracted from baculovirus infected Sf9 cells using GS-1 (YRRAAVPPSPSLSRHSSPHQSpEDEEE) peptide as substrate assessed as enzyme residual activity at 10 uM incubated for 30 mins in presence of ATP by ADP-Glo kinase assay relative to control
# Glycogen synthase kinase-3 beta (Homo sapiens), sequence (P49841 whole entry, looked up, canonical isoform): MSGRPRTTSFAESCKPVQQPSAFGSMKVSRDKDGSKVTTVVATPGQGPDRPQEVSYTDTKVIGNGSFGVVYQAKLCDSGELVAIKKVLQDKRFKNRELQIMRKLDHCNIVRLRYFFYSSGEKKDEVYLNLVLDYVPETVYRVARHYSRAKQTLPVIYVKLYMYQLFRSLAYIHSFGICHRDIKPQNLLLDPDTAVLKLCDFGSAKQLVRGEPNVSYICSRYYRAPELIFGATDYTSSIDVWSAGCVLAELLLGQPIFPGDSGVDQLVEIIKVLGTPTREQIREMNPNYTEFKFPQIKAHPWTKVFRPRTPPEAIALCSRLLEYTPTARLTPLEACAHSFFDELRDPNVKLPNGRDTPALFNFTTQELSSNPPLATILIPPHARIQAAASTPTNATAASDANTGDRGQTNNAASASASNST
# [13] = biological target: Glycogen synthase kinase-3 beta (Homo sapiens) (UniProt P49841); assay: Inhibition of recombinant human GSK3beta extracted from baculovirus infected Sf9 cells using GS-1 (YRRAAVPPSPSLSRHSSPHQSpEDEEE) peptide as substrate assessed as enzyme residual activity at 1 uM incubated for 30 mins in presence of ATP by ADP-Glo kinase assay relative to control
# [14] = biological target: Casein kinase I isoform epsilon (Homo sapiens) (UniProt P49674); assay: Inhibition of recombinant human CK1epsilon extracted from baculovirus infected Sf9 cells using RRKHAAIGSpAYSITA peptide as substrate assessed as enzyme residual activity at 10 uM incubated for 30 mins in presence of ATP by ADP-Glo kinase assay relative to control
# Casein kinase I isoform epsilon (Homo sapiens), sequence (P49674 whole entry, looked up, canonical isoform): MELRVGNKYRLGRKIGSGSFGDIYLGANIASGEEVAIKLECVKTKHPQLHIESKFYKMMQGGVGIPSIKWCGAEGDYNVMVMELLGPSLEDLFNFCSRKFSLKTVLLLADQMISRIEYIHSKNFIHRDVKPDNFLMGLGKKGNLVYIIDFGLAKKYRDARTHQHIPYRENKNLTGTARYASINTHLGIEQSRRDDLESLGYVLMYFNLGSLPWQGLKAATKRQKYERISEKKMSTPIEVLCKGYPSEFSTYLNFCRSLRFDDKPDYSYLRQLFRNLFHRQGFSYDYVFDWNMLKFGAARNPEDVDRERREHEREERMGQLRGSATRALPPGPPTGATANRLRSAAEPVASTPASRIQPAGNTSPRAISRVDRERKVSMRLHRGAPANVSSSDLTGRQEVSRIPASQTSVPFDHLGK
# [15] = biological target: Casein kinase I isoform epsilon (Homo sapiens) (UniProt P49674); assay: Inhibition of recombinant human CK1epsilon extracted from baculovirus infected Sf9 cells using RRKHAAIGSpAYSITA peptide as substrate assessed as enzyme residual activity at 1 uM incubated for 30 mins in presence of ATP by ADP-Glo kinase assay relative to control
# [16] = biological target: T3, Cyclin-dependent kinase 5/CDK5 activator 1 (Homo sapiens) (UniProt Q00535+Q15078); assay: Inhibition of recombinant human CDK5/p25 extracted from bacteria using histone H1 as substrate assessed as enzyme residual activity at 10 uM incubated for 30 mins in presence of ATP by ADP-Glo kinase assay relative to control; type: protein-complex assay
# T3 sequence (Q00535 whole entry): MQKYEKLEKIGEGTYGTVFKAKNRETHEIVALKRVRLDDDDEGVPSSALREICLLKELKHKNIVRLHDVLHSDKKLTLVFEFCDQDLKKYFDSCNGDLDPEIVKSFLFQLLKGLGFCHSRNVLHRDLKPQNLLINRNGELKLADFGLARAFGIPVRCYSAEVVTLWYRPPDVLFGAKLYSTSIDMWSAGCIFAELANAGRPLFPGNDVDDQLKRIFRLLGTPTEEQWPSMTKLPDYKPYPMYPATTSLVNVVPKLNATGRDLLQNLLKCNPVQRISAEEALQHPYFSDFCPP
# T3 sequence (Q15078 99-307 partner limits assumed): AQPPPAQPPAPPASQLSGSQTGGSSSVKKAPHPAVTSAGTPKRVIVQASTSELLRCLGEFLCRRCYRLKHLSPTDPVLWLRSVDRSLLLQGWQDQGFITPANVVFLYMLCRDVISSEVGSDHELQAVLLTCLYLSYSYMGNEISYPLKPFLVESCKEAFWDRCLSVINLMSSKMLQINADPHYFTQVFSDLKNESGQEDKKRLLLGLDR
# [17] = biological target: T3, Cyclin-dependent kinase 5/CDK5 activator 1 (Homo sapiens); assay: Inhibition of recombinant human CDK5/p25 extracted from bacteria using histone H1 as substrate assessed as enzyme residual activity at 1 uM incubated for 30 mins in presence of ATP by ADP-Glo kinase assay relative to control; type: protein-complex assay
# [18] = biological target: T4, Serine/threonine-protein kinase pim-1 (Homo sapiens, UniProt P11309); assay: Inhibition of recombinant human PIM-1 extracted from bacteria using histone H1 as substrate assessed as enzyme residual activity at 10 uM incubated for 30 mins in presence of ATP by ADP-Glo kinase assay relative to control
# Target sequence in this assay (P11309 whole entry, looked up): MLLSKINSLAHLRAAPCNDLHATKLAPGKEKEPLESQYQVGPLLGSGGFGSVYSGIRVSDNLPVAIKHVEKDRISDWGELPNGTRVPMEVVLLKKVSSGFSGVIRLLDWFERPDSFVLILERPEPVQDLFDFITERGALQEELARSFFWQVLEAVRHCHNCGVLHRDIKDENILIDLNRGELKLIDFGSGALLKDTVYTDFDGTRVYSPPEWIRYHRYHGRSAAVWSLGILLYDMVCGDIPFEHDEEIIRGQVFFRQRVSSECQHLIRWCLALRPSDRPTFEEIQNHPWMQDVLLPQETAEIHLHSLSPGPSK
# [19] = biological target: T4, Serine/threonine-protein kinase pim-1; assay: Inhibition of recombinant human PIM-1 extracted from bacteria using histone H1 as substrate assessed as enzyme residual activity at 1 uM incubated for 30 mins in presence of ATP by ADP-Glo kinase assay relative to control
# Target sequence in this assay (P11309 whole entry, looked up): as above
# [20] = biological target: T4, Serine/threonine-protein kinase pim-1; assay: Inhibition of recombinant human PIM-1 extracted from bacteria using histone H1 as substrate incubated for 30 mins in presence of ATP by ADP-Glo kinase assay
# Target sequence in this assay (P11309 whole entry): as the sequence (P11309 whole entry, looked up) above
# [21] = Cytotoxicity against human hTERT-RPE1 cells assessed as effect on cell viability incubated for 48 hrs by MTS assay; type: toxicity, cell-based, TERT-RPE1
# HBL-100 = assay: Antiproliferative activity against human HBL-100 cells assessed as inhibition of cell viability incubated for 48 hrs by MTS assay; type: functional, cell-based; conditions: HBL-100, 48 h
# HCT-116 = assay: Antiproliferative activity against human HCT-116 cells assessed as inhibition of cell viability incubated for 48 hrs by MTS assay; type: functional, cell-based; conditions: HCT-116, 48 h
# [22] = biological target: T1, Serine/threonine-protein kinase haspin (Homo sapiens); assay: Inhibition of haspin in human U2OS cells assessed as at 5 uM incubated for 16 hrs by DAPI staining based immunofluorescence analysis relative to control; type: cell-based
# [23] = biological target: T1, Serine/threonine-protein kinase haspin (Homo sapiens); assay: Inhibition of haspin in human U2OS cells assessed as at 1 uM incubated for 16 hrs by DAPI staining based immunofluorescence analysis relative to control; type: cell-based
# [24] = Selectivity index, ratio of IC50 for inhibition of recombinant rat DYRK1A kinase domain (1to 499 residues) extracted from bacteria to IC50 for inhibition of human haspin kinase domain (470 to 798 residues) extracted from bacteria using histone H3 (1 to 21) peptide as substrate
Compound,EC50 (SH-SY5Y) [µM],Activity [1] [%],Activity [2] [%],IC50 [3] [µM],Activity [4] [%],Activity [5] [%],Activity [6] [%],IC50 [7] [µM],Activity [8] [%],IC50 [9] [µM],Activity [10] [%],Activity [11] [%],Activity [12] [%],Activity [13] [%],Activity [14] [%],Activity [15] [%],Activity [16] [%],Activity [17] [%],Activity [18] [%],Activity [19] [%],other results
c1cncc(-c2c[nH]c3cc4cnccc4cc23)c1,41.2,2,7,0.0306,6,8,19,0.237,36,0.602,39,74,37,75,70,91,57,86,22,37,EC50 (U2OS): 26.7 µM; IC50 [20]: 0.114 µM; EC50 at 48 h [21]: 18.2 µM; EC50 (HBL-100): > 50 µM; EC50 (HCT-116): 13 µM; inhibition [22]: 26%
Cn1cc(-c2ccncc2)c2cc3ccncc3cc21,6.4,5,7,0.0236,9,13,35,0.546,23,0.339,59,97,92,74,42,72,44,63,18,37,EC50 (U2OS): 3.2 µM; IC50 [20]: 1.27 µM; EC50 at 48 h [21]: 2.3 µM; EC50 (HBL-100): 6.6 µM; EC50 (HCT-116): 2.1 µM; inhibition [22]: 37%
CCCNc1ccc2ncc(-c3ccc4[nH]ncc4c3)n2n1,,,,,,,,,,,,,,,,,,,,,inhibition [23]: 100%
c1ccc(-c2c[nH]c3cc4cnccc4cc23)nc1,,3,8,0.0844,11,10,27,0.387,27,0.159,49,90,72,84,90,97,35,72,19,63,Ratio IC50 [24]: 1.9
